The text below walks through data of patent US20230303613A1, “3′3′ CYCLIC DINUCLEOTIDES WITH AN ALKENYLENE” (Institute of Organic Chemistry and Biochemistry AS CR, v.v.i, priority 2020, published 2023).

The target of one test is T1, AQ STING (G230A-R293Q) (Homo sapiens, UniProt Q86WV6, G230A/H232R/R293Q).
T1 construct: 8xHis (N, cleaved yes); SUMO (N, cleaved yes); made in house; host or cells: E. coli Rosetta-gami B (DE3)
In words: Differential Scanning Fluorimetry with AQ STING. In kind it is binding. The following applies: thermal shift vs apoprotein, 150 µM CDN, truncated human AQ STING 0.1 mg/ml; for ΔTm at 150 µM: read-out: DSF ΔTm AQ STING. The text has this: (§1) Purified PCR products were cleaved with restriction enzymes BamHI (cat. # R0136S, NEB, Ipswich, USA) and NotI (cat. # R0189S, NEB, Ipswich, USA) and cloned into the pSUMO vector linearized with the identical enzymes.
(§2) Bacterial pellets were re-suspended in ice-cold lysis buffer containing 50 mmol.1^-1 TrisCl (cat. # T1503, Sigma Aldrich, Czech Republic) pH 8.0, 300 mmol.1^-1 NaCl, 3 mmol.1^-1 β-mercaptoethanol (cat. # M6250, Sigma Aldrich, Czech Republic), 10% glycerol (cat. # G5516, Sigma Aldrich, Czech Republic) and 20 mmol.1^-1 imidazole (cat. # I5513, Sigma Aldrich, Czech Republic) using Dounce homogenizer. DNase I (cat. # D5025, Sigma Aldrich, Czech Republic) and RNase A (cat. # R6513, Sigma Aldrich, Czech Republic) were added (final concentration 50 µg/ml) together with MgCl2 (final concentration 5 mmol.l^-1) to the homogenate and bacteria were lysed using French Press G-M™ High-Pressure Cell Press Homogenizer (1500 psi, 3 cycles). […] The resin was poured into a chromatography column, washed with 50 ml buffer A (50 mmol.1^-1 TrisCl (pH 8.0), 800 mmol.1^-1 NaCl, 3 mmol.1^-1 β-mercaptol; 10% glycerol; 20 mmol.1^-1 imidazole) and 8-His-SUMO tagged STING proteins were eluted with 15 ml buffer A containing 300 mmol.1^-1 imidazole. […] Proteins were concentrated with Amicon® Ultra-15 10 K device (cat. # UFC901008, Merck Millipore, Billerica, USA) and flash frozen in liquid N2.
(§3) 20 µL solutions of the reaction mixtures were pipetted in triplicates into 96 well optical reaction plates and thermal denaturation of samples were performed on real time PCR cycler (LightCycler® 480 Instrument II - Roche, Basel, Switzerland). The first derivative of the thermal denaturation curves was performed to calculate denaturing temperatures of STING - CDN complexes and STING apoproteins. The thermal shift for each CDN was calculated by subtracting the average denaturing temperature of STING apoprotein from the average denaturing temperature of STING CDN complex.

In test [1] the target is T2, WT STING (Homo sapiens, UniProt Q86WV6, H232R). In words: Digitonin assay using 293T wtSTING-FL reporter cells. In kind it is cell-based. The following applies: 293T wtSTING-FL cells; 30 minutes in Digitonin buffer, then 5 hours; ISRE firefly luciferase reporter. The text has this:
Two complementary oligonucleotides of the sequence […] […] […] […] […] The oligonucleotides were mixed in equal molar amounts, hybridized, and cleaved by restriction endonucleases HindIII (cat. #. R0104S, NEB, Ipswich, USA) and BglII (cat. # R0144S, NEB, Ipswich, USA). Ultimately, they were ligated into plasmid pGL4.27 (cat. # E6651, Promega, Madison, USA) linearized with the same enzymes. As result the sequence with four ISRE sites was placed upstream of the minimum promoter of firefly luciferase reporter gene.
After 5 minutes incubation at room temperature (RT), 250 µL of the mixture was added dropwise to the cells in one well. Cells were incubated 36 hours at 37° C. with 5% CO2, and then detached with 0.05% Trypsin and 0.22 g/L EDTA (both cat. # L0941, Biowest, Riverside, USA).
Transfected cells were seeded onto poly-D-lysine coated six well plates at density 50,000 cells per 1 cm^2 in DMEM medium with high glucose containing 10% heat inactivated FBS, 30 µg/mL blasticidin (cat. # ant-bl-05, InvivoGen, San Diego, USA), 0.06 mg/ml Penicillin G and 0.1 mg/ml Streptomycin Sulfate (both cat. #. L0018, Biowest, Riverside, USA). The medium was replenished every 3 - 4 days until visible colonies of cells resistant to blasticidin were formed.
Blasticidin resistant cells stably expressing WT STING were further transfected with […] plasmid following the same procedure as described above. […] Homogeneous culture of stably double transfected cells was prepared by limiting dilution of cells in 96 well plates and wells with cells were selected that originated from a single cell.
The medium was removed next day and three fold serial dilutions of compounds in Digitonin buffer containing 50 mmol.l^-1 HEPES (cat. # H3375, Sigma Aldrich, Czech Republic) pH 7.0, 100 mmol.1^-1 KCl, 3 mmol.l^-1 MgCl2, 0.1 mmol.l^-1 DTT (cat. # D0632, Sigma Aldrich, Czech Republic), 85 mmol.1^-1 Sucrose (cat. # S7903, Sigma Aldrich, Czech Republic), 0.2% BSA (cat. # A2153, Sigma Aldrich, Czech Republic), 1 mmol.l^-1 ATP (cat. # A1852, Sigma Aldrich, Czech Republic), 0.1 mmol.1^-1 GTP (cat. # G8877, Sigma Aldrich, Czech Republic), and 10 µg/mL Digitonin A (cat. # D141, Sigma Aldrich, Czech Republic) were added to the cells. The buffer was removed after 30 minutes incubation at 37° C. with 5% CO2, the cells were washed once with 100 µl of cultivation medium, and 100 µl of medium was added to each well. The plates with cells were incubated for 5 hours at 37° C. with 5% CO2, 50µl of the medium was removed and 30 µl of ONE-Glo^Tm Luciferase Assay System reagent (cat. # E6120, Promega, Madison, USA) was added to each well. Luminescence was read on Synergy H1 (Biotek, Winooski, USA).
Target sequence in this assay (Q86WV6 whole entry H232R): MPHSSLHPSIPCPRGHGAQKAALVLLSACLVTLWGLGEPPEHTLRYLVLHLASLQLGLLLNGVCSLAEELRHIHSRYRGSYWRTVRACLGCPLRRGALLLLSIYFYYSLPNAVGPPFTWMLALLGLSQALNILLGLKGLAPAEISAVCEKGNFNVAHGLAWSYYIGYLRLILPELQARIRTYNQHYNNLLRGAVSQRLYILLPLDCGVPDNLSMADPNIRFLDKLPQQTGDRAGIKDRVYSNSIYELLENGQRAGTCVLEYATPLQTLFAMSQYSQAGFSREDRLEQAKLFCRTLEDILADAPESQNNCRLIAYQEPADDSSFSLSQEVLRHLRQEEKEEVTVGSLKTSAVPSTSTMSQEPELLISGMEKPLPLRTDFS
In general terms: Reporter assays use an easily measured gene product as a stand-in for the process of interest.

Test [2] concerns the target T2, WT STING. Kind of test: Differential Scanning Fluorimetry with WT STING. As to conditions: thermal shift vs apoprotein, 150 µM CDN, truncated human WT STING 0.1 mg/ml; for ΔTm at 150 µM: read-out: DSF ΔTm WT STING. In kind it is binding. The arrangement: 8xHis (N, cleaved yes); SUMO (N, cleaved yes); made in house; host or cells: E. coli Rosetta-gami B (DE3).
Description: as §1, §2, §3
Target sequence in this assay (Q86WV6 140-343 H232R): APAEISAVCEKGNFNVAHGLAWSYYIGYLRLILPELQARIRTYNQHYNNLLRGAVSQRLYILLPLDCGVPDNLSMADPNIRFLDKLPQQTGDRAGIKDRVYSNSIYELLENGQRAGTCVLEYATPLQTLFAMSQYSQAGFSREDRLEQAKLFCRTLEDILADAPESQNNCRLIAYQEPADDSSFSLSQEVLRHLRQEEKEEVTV
Background: Differential scanning fluorimetry follows unfolding on heating by fluorescence.

T1 sequence (Q86WV6 140-343 G230A/H232R/R293Q): as the sequence (Q86WV6 140-343 H232R) above, with G91A, R154Q counted along it

In general, ΔTm refers to the shift of the melting midpoint relative to a reference. In general, EC50 refers to the concentration at which the effect is half-maximal. Take `Nc1nc2c(ncn2[C@@H]2O[C@@H]3/C=C\P(=O)(O)O[C@H]4C[C@H](n5cnc6c(N)nc(F)nc65)O[C@@H]4COP(=O)(O)O[C@H]3[C@H]2O)c(=O)[nH]1` [Compound 66, (1S,6R,8R,10S,13Z,15R,17R,18R)-8-(6-amino-2-fluoro-9H-purin-9-yl)-17-(2-amino-6-oxo-6,9-dihydro-1H-purin-9-yl)-3,12,18-trihydroxy-2,4,7,11,16-pentaoxa-3λ^5,12λ^5-diphosphatricyclo[13.3.0.0^6,^10]octadec-13-ene-3,12-dione]: the ΔTm at 150 µM on AQ STING (G230A-R293Q) is 1.7 °C; at WT STING [2], 0.5 °C. Moreover, the EC50 at WT STING [1] stood at 15000 nM.

With `Nc1ncnc2c1ncn2[C@@H]1O[C@@H]2COP(=O)(O)O[C@H]3[C@@H](O)[C@H](n4cnc5c(N)ncnc54)O[C@@H]3COP(=O)(O)O[C@H]2[C@H]1O` [3′3′c-di-AMP, 3′3′-c-di-AMP, reference compound], the “DSF ΔTm AQ STING” value at AQ STING (G230A-R293Q) came out at 9.3 °C. On WT STING [1], the EC50 is 300 nM. For the same compound, on WT STING [2], the “DSF ΔTm WT STING” value is 2.6 °C.

In the case of `Nc1nc2c(ncn2[C@@H]2O[C@@H]3/C=C\P(=O)(O)O[C@H]4[C@@H](N)[C@H](n5cnc6c(N)ncnc65)O[C@@H]4COP(=O)(O)O[C@H]3[C@H]2O)c(=O)[nH]1` [Compound 67, (1S,6R,8R,9R,10S,13Z,15R,17R,18R)-9-amino-17-(2-amino-6-oxo-6,9-dihydro-1H-purin-9-yl)-8-(6-amino-9H-purin-9-yl)-3,12,18-trihydroxy-2,4,7,11,16-pentaoxa-3λ^5,12λ^5-diphosphatricyclo[13.3.0.0^6,^10]octadec-13-ene-3,12-dione], the shift in melting temperature (ΔTm) at 150 µM at AQ STING (G230A-R293Q) came to 2.9 °C; at WT STING [2] it was 0.3 °C. The EC50 on WT STING [1] turned out to be 6400 nM.

With `Nc1nc2c(ncn2[C@@H]2O[C@@H]3/C=C/P(=O)(O)O[C@H]4C[C@H](n5cnc6c(N)ncnc65)O[C@@H]4COP(=O)(O)O[C@H]3[C@H]2O)c(=O)[nH]1` [Compound 55, (1S,6R,8R,10S,13E,15R,17R,18R)-17-(2-amino-6-oxo-6,9-dihydro-1H-purin-9-yl)-8-(6-amino-9H-purin-9-yl)-3,12,18-trihydroxy-2,4,7,11,16-pentaoxa-3λ^5,12λ^5-diphosphatricyclo[13.3.0.0^6,^10]octadec-13-ene-3,12-dione], the ΔTm at 150 µM on AQ STING (G230A-R293Q) came out at 8.6 °C; at WT STING [2], 1.9 °C. Moreover, the EC50 on WT STING [1] amounted to 780 nM.

`CSc1ncnc2c1ncn2[C@@H]1O[C@@H]2COP(=O)(O)O[C@H]3[C@@H](O)[C@H](n4cnc5c(=O)[nH]c(N)nc54)O[C@@H]3/C=C\P(=O)(O)O[C@H]2[C@H]1O` (stereo in doubt) [Compound 70, (1S,6R,8R,9R,10S,15R,17R,18R)-17-(2-amino-6-oxo-6,9-dihydro-1H-purin-9-yl)-3,9,12,18-tetrahydroxy-8-[6-(methylsulfanyl)-9H-purin-9-yl]-2,4,7,1 1,16-pentaoxa-3λ^5,12λ^5-diphosphatricyclo[13.3.0.0^6,^10]octadec-13-ene-3,12-dione]: the values for the ΔTm at 150 µM on AQ STING (G230A-R293Q) and on WT STING [2] were 1.1 °C and 0.5 °C, respectively. Further, the EC50 at WT STING [1] was 16100 nM.

In the case of `Nc1nc2c(ncn2[C@@H]2O[C@@H]3/C=C/P(=O)(O)O[C@H]4[C@@H](F)[C@H](n5cnc6c(N)ncnc65)O[C@@H]4COP(=O)(O)O[C@H]3[C@H]2F)c(=O)[nH]1` [Compound 54, (1R,6R,8R,9R,10R,13E,15R,17R,18R)-17-(2-amino-6-oxo-6,9-dihydro-1H-purin-9-yl)-8-(6-amino-9H-purin-9-yl)-9,18-difluoro-3,12-dihydroxy-2,4,7,11,16-pentaoxa-3λ^5,12λ^5-diphosphatricycl [13.3.0.0^6,^10]octadec-13-ene-3,12-dione], the ΔTm at 150 µM at AQ STING (G230A-R293Q) stood at 15 °C; on WT STING [2] it was 9.2 °C. Besides, the 50% effective concentration (EC50) on WT STING [1] is 20 nM.

For the compound `Nc1nc2c(ncn2[C@H]2C[C@@H]3OP(=O)(O)/C=C/[C@H]4O[C@@H](n5cnc6c(N)ncnc65)[C@H](F)[C@@H]4OP(=O)(O)OC[C@H]3O2)c(=O)[nH]1` [Compound 57, (1R,6R,8R,10S,13E,15R,17R,18R)-8-(2-amino-6-oxo-6,9-dihydro-1H-purin-9-yl)-17-(6-amino-9H-purin-9-yl)-18-fluoro-3,12-dihydroxy-2,4,7,11,16-pentaoxa-3λ^5,12λ^5-diphosphatricyclo[13.3.0.0^6,^10]octadec-13-ene-3,12-dione], the ΔTm at 150 µM at AQ STING (G230A-R293Q) stood at 11.3 °C; on WT STING [2], 6.1 °C. Besides, the EC50 at WT STING [1] was 120 nM.

Regarding `Nc1nc2c(ncn2[C@@H]2O[C@@H]3/C=C/P(=O)(O)O[C@H]4[C@@H](F)[C@H](n5cnc6c(=O)[nH]c(N)nc65)O[C@@H]4COP(=O)(O)O[C@H]3[C@H]2F)c(=O)[nH]1` [Compound 56, (1R,6R,8R,9R,10R,13E,15R,17R,18R)-8,17-bis(2-amino-6-oxo-6,9-dihydro-1H-purin-9-yl)-9,18-difluoro-3,12-dihydroxy-2,4,7,11,16-pentaoxa-3λ^5,12λ^5-diphosphatricyclo[13.3.0.0^6,^10]octadec-13-ene-X3.12-dione], the results for the ΔTm at 150 µM on AQ STING (G230A-R293Q) and on WT STING [2] were 10.6 °C and 4.1 °C, respectively. Also, the EC50 on WT STING [1] is 500 nM.

As for `Nc1nc2c(ncn2[C@@H]2O[C@@H]3COP(=O)(O)O[C@H]4[C@@H](O)[C@H](n5cnc6c(=O)[nH]c(N)nc65)O[C@@H]4COP(=O)(O)O[C@H]3[C@H]2O)c(=O)[nH]1` [3′3′c-di-GMP, 3′3′-c-di-GMP, reference compound], the “DSF ΔTm AQ STING” value on AQ STING (G230A-R293Q) was 7.7 °C. Besides, the EC50 at WT STING [1] worked out at 5800 nM. Moreover, on WT STING [2], the “DSF ΔTm WT STING” value stood at 2.6 °C.
